Each structure is given as a SMILES string.

T1 sequence (P08581 with tags, fused parts or gaps): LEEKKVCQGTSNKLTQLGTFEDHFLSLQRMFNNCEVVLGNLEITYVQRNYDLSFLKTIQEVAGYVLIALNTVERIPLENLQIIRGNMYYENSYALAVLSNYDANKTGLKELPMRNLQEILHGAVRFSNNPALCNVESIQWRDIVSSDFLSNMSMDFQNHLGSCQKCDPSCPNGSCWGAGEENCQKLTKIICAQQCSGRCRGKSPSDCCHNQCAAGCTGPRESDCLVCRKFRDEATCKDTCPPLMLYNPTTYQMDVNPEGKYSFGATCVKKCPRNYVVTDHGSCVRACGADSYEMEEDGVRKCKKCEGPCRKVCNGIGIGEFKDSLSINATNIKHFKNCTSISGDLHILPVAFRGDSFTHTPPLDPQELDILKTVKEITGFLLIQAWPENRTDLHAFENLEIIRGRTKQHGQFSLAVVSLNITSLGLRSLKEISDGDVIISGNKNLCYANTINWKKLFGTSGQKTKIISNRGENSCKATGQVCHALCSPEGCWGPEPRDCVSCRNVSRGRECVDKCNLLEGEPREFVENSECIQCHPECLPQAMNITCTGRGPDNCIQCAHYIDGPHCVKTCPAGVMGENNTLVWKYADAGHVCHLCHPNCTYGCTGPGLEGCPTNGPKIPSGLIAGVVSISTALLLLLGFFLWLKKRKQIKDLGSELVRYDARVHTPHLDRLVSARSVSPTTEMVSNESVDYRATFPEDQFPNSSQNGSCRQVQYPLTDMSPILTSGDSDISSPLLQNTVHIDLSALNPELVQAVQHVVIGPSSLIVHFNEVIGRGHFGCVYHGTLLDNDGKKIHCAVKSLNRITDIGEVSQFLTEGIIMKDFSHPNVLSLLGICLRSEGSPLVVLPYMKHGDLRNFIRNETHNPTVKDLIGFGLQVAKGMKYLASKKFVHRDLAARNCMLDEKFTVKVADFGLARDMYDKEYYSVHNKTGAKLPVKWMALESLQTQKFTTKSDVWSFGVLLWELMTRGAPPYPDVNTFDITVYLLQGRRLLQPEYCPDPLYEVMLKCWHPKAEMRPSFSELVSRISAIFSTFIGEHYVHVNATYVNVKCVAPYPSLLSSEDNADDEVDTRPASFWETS

This test concerns the target T1, Met receptor (EGFR/Met chimeric cells, EMR) (Homo sapiens, UniProt P08581).
T1 construct: expressed in transfected cells; the other entry of the earlier key: EGFR (P00533, Epidermal growth factor receptor)
The test can be described thus: Met Autophosphorylation Assay. Format: biochemical. The essentials: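 Met phosphorylation was measured by capture ELISA. Lysates (90 μg/100 μl, HNTG plus 1 mM PMSF) from transiently transfected EGFR/Met chimera (EMR) cells were bound for 60 min at room temperature to wells holding rabbit anti-Met (C-28) on goat anti-rabbit coat. Phosphotyrosine was the read-out.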
As to `N#Cc1ccccc1C=C1C(=O)Nc2ccc(CCCl)cc21` [10735/G07], the “Met Kinase % Inhibition (P.130)” value was 37.1%. With `Cc1c(Br)cc(Br)c2c1C(=Cc1cccc3ccccc13)C(=O)N2` [10735/H09], the “Met Kinase % Inhibition (P.130)” value came to 22.4%.

Consider `O=C1Nc2ccc(S(=O)(=O)Nc3ccc(C(F)(F)F)cc3)cc2C1=Cc1ccccc1F` [10736/E08], for which the “Met Kinase % Inhibition (P.130)” value is listed as 52.3%.

On to `CCc1ccc(C=C2C(=O)Nc3ccc(I)cc32)cc1` [10736/B09], for which the “Met Kinase % Inhibition (P.130)” value is 55.2%.

`O=C1Nc2ccc(CCCl)cc2C1=Cc1c(F)cccc1F` [10735/G08]: the “Met Kinase % Inhibition (P.130)” value was 29.9%. With `O=C1Nc2ccc(S(=O)(=O)Nc3ccc(C(F)(F)F)cc3)cc2C1=Cc1ccccc1Cl` [10736/E11] the figure was 64.4%; with `Cc1c(Br)cc(Br)c2c1C(=Cc1cccc([N+](=O)[O-])c1)C(=O)N2` [10719/H10], −5.7%.

For the origin of these results see patent publication US20020026053A1, “Novel 3-(substituted) -2- indolinones compounds and use thereof as inhibitors of protein kinase activity” (priority 1997, published 2002).
